# Reference: patent publication US11000033B2, “Ketone or oxime compound, and herbicide” (NISSAN CHEMICAL CORPORATION, priority 2014, dated 2021)
# What was measured:
# Assay type in all cases: in vivo
# [1] = test system: transplanted rice plant; test: Test Example 1: effect on crop, application before weed generation in submerged conditions (symbol a)
# Summary of the method: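 Alluvial soil pots flooded to 4 cm water, sown with Echinochloa oryzacola, Scirpus juncoides and Monochoria vaginalis, then transplanted with 2.5 leaf stage rice seedlings; pre-emergence application. Greenhouse 25° C. to 30° C.; scored 0–5 by herbicidal ratio 3 weeks after application.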
# [2] = test system: Monochoria vaginalis; test: Test Example 2: herbicidal activity, application during weed generation in submerged conditions (symbol C); conditions: Table 23, grade 0-5 by criteria of Test Example 1
# Summary of the method: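 Read-out: herbicidal effect on each species rated on a visual scale 3 weeks after treatment. Plants were raised together from seed in flooded alluvial soil (4 cm water) at 25° C. to 30° C. and treated at one to two leaves by water-surface application of diluted emulsion.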
# [3] = test system: Echinochloa crus-galli var. crus-galli; test: Test Example 4: herbicidal effect by soil treatment (symbol H)
# Summary of the method: (§1)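 Seeds were sown in sterilized diluvial soil, covered with about 1.5 cm of soil, and the soil surface was sprayed with a water-diluted emulsion of the compound at a predetermined rate. Plants grew in a greenhouse at 25° C. to 30° C.; effects were scored visually 3 weeks after application.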
# [4] = test system: Amaranthus retroflexus; test: Test Example 4: herbicidal effect by soil treatment (symbol N)
# Summary of the method: as §1
# [5] = test system: Stellaria media; test: Test Example 4: herbicidal effect by soil treatment (symbol P)
# Summary of the method: as §1
# [6] = test system: Galium spurium; test: Test Example 4: herbicidal effect by soil treatment (symbol Q)
# Summary of the method: as §1
# [7] = test system: rice; test: Test Example 4: effect on crop by soil treatment (symbol b)
# Summary of the method: (§2)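 Greenhouse culture at 25° C. to 30° C. followed sowing of seed in spots on sterilized diluvial soil with a soil cover close to 1.5 cm thick.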
# [8] = test system: beet; test: Test Example 4: effect on crop by soil treatment (symbol f)
# Summary of the method: as §2
# [9] = test system: Digitaria ciliaris; test: Test Example 5: herbicidal effect by foliage application, plastic box (symbol F); conditions: 3 weeks after application
# Summary of the method: (§3)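 Effect is rated 3 weeks after a foliar spray of water-diluted emulsion concentrate at a predetermined herbicide amount. Plants had grown 14 days in a 25° C. to 30° C. greenhouse from seed in sterilized diluvial soil.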
# [10] = test system: Setaria viridis; test: Test Example 5: herbicidal effect by foliage application, plastic box (symbol G); conditions: 3 weeks after application
# Summary of the method: as §3
# [11] = test system: Avena fatua; test: Test Example 5: herbicidal effect by foliage application, plastic box (symbol I); conditions: 3 weeks after application
# Summary of the method: as §3
# [12] = test system: Abutilon theophrasti; test: Test Example 5: herbicidal effect by foliage application, plastic box (symbol M); conditions: 3 weeks after application
# Summary of the method: as §3
# [13] = test system: Stellaria media; test: Test Example 5: herbicidal effect by foliage application, plastic box (symbol P); conditions: 3 weeks after application
# Summary of the method: as §3
# [14] = test system: rice plant; test: Test Example 5: effect on crop by foliage application, plastic box (symbol b); conditions: 3 weeks after application
# Summary of the method: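 Greenhouse culture at 25° C. to 30° C. followed spot-like sowing into sterilized diluvial soil, with seed covered by roughly 1.5 cm of soil.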
# [15] = application herbicide amount 320 g/ha
# [16] = application herbicide amount 192 g/ha
SMILES,"Herbicidal effect grade, C: Monochoria vaginalis [2, 15]","Effect grade on crop, a: transplanted rice plant [1, 15]","H: Echinochloa crus-galli var. crus-galli, herbicidal effect grade ([3]; 320 g/ha)","N: Amaranthus retroflexus, herbicidal effect grade ([4]; 320 g/ha)","P: Stellaria media, herbicidal effect grade ([5]; 320 g/ha)","Q: Galium spurium, herbicidal effect grade ([6]; 320 g/ha)","b: directly sowed rice plant, effect grade on crop ([7]; 320 g/ha)","f: beet, effect grade on crop ([8]; 320 g/ha)","F: Digitaria ciliaris, herbicidal effect (criteria 0-5) ([9]; 320 g/ha)","G: Setaria viridis, herbicidal effect (criteria 0-5) ([10]; 320 g/ha)","I: Avena fatua, herbicidal effect (criteria 0-5) ([11]; 320 g/ha)","M: Abutilon theophrasti, herbicidal effect (criteria 0-5) ([12]; 320 g/ha)","P: Stellaria media, herbicidal effect (criteria 0-5) ([13]; 320 g/ha)","b: directly sowed rice plant, effect on crop (criteria 0-5) ([14]; 320 g/ha)",further results
CCC(CC1CC(O)=C(c2c(C)cc(-c3ccccc3)cc2OC)C1=O)=NOC (mixture of isomers) [13-004],4 (Herbicidal ratio of 70% or higher and lower than 90%),–,–,–,–,–,–,–,–,–,–,–,–,–,"a (transplanted rice plant) effect on crop grade [1, 15]: 5 (Herbicidal ratio of 90% or more (almost completely withered)); H: Echinochloa crus-galli var. crus-galli, herbicidal effect grade [3, 15]: 5 (Herbicidal ratio of 90% or more (almost completely withered)); N: Amaranthus retroflexus, herbicidal effect grade [4, 15]: 4 (Herbicidal ratio of 70% or higher and lower than 90%); P: Stellaria media, herbicidal effect grade [5, 15]: 1 (Herbicidal ratio of 5% or higher and lower than 20%); Q: Galium spurium, herbicidal effect grade [6, 15]: 0 (Herbicidal ratio of 5% or lower (almost no effect)); b: directly sowed rice plant, effect on crop grade [7, 15]: 5 (Herbicidal ratio of 90% or more (almost completely withered)); f: beet, effect on crop grade [8, 15]: 0 (Herbicidal ratio of 5% or lower (almost no effect)); F: Digitaria ciliaris, herbicidal effect grade ([9]; 320 g/ha): 5 (Herbicidal ratio of 90% or more (almost completely withered)); G: Setaria viridis, herbicidal effect grade ([10]; 320 g/ha): 5 (Herbicidal ratio of 90% or more (almost completely withered)); I: Avena fatua, herbicidal effect grade ([11]; 320 g/ha): 5 (Herbicidal ratio of 90% or more (almost completely withered)); M: Abutilon theophrasti, herbicidal effect grade ([12]; 320 g/ha): 1 (Herbicidal ratio of 5% or higher and lower than 20%); P: Stellaria media, herbicidal effect grade ([13]; 320 g/ha): 2 (Herbicidal ratio of 20% or higher and lower than 40%); b: directly sowed rice plant, effect on crop grade ([14]; 320 g/ha): 5 (Herbicidal ratio of 90% or more (almost completely withered))"
CON=C(C)CC1CC(OC(=O)C2CCCO2)=C(c2c(C)cc(C)cc2C)C1=O (centres unmarked) [1-076],–,–,–,–,–,–,–,–,–,–,–,–,–,–,"Effect grade on crop, a: transplanted rice plant [1, 16]: 5 (Herbicidal ratio of 90% or more (almost completely withered)); Herbicidal effect grade, C: Monochoria vaginalis [2, 16]: 0 (Herbicidal ratio of 5% or lower (almost no effect)); H: Echinochloa crus-galli var. crus-galli, herbicidal effect grade ([3]; 192 g/ha): 5 (Herbicidal ratio of 90% or more (almost completely withered)); N: Amaranthus retroflexus, herbicidal effect grade ([4]; 192 g/ha): 4 (Herbicidal ratio of 70% or higher and lower than 90%); P: Stellaria media, herbicidal effect grade ([5]; 192 g/ha): 0 (Herbicidal ratio of 5% or lower (almost no effect)); Q: Galium spurium, herbicidal effect grade ([6]; 192 g/ha): 0 (Herbicidal ratio of 5% or lower (almost no effect)); b: directly sowed rice plant, effect grade on crop ([7]; 192 g/ha): 5 (Herbicidal ratio of 90% or more (almost completely withered)); f: beet, effect grade on crop ([8]; 192 g/ha): 0 (Herbicidal ratio of 5% or lower (almost no effect)); F: Digitaria ciliaris, herbicidal effect (criteria 0-5) ([9]; 192 g/ha): 5 (Herbicidal ratio of 90% or more (almost completely withered)); G: Setaria viridis, herbicidal effect (criteria 0-5) ([10]; 192 g/ha): 5 (Herbicidal ratio of 90% or more (almost completely withered)); I: Avena fatua, herbicidal effect (criteria 0-5) ([11]; 192 g/ha): 5 (Herbicidal ratio of 90% or more (almost completely withered)); M: Abutilon theophrasti, herbicidal effect (criteria 0-5) ([12]; 192 g/ha): 4 (Herbicidal ratio of 70% or higher and lower than 90%); P: Stellaria media, herbicidal effect (criteria 0-5) ([13]; 192 g/ha): 3 (Herbicidal ratio of 40% or higher and lower than 70%); b: directly sowed rice plant, effect on crop (criteria 0-5) ([14]; 192 g/ha): 5 (Herbicidal ratio of 90% or more (almost completely withered))"
CC(CC1CC(O)=C(c2c(C)cc(C)cc2C)C1=O)=NOCC(C)Br (centres unmarked) [1-135],0 (Herbicidal ratio of 5% or lower (almost no effect)),5 (Herbicidal ratio of 90% or more (almost completely withered)),5 (Herbicidal ratio of 90% or more (almost completely withered)),0 (Herbicidal ratio of 5% or lower (almost no effect)),0 (Herbicidal ratio of 5% or lower (almost no effect)),0 (Herbicidal ratio of 5% or lower (almost no effect)),5 (Herbicidal ratio of 90% or more (almost completely withered)),0 (Herbicidal ratio of 5% or lower (almost no effect)),5 (Herbicidal ratio of 90% or more (almost completely withered)),5 (Herbicidal ratio of 90% or more (almost completely withered)),5 (Herbicidal ratio of 90% or more (almost completely withered)),3 (Herbicidal ratio of 40% or higher and lower than 70%),1 (Herbicidal ratio of 5% or higher and lower than 20%),5 (Herbicidal ratio of 90% or more (almost completely withered)),–
CC(CC1CC(O)=C(c2c(C)cc(C)cc2C)C1=O)=NOCC1CC1(F)F (centres unmarked) [1-109],2 (Herbicidal ratio of 20% or higher and lower than 40%),5 (Herbicidal ratio of 90% or more (almost completely withered)),5 (Herbicidal ratio of 90% or more (almost completely withered)),3 (Herbicidal ratio of 40% or higher and lower than 70%),0 (Herbicidal ratio of 5% or lower (almost no effect)),0 (Herbicidal ratio of 5% or lower (almost no effect)),5 (Herbicidal ratio of 90% or more (almost completely withered)),0 (Herbicidal ratio of 5% or lower (almost no effect)),5 (Herbicidal ratio of 90% or more (almost completely withered)),5 (Herbicidal ratio of 90% or more (almost completely withered)),5 (Herbicidal ratio of 90% or more (almost completely withered)),3 (Herbicidal ratio of 40% or higher and lower than 70%),3 (Herbicidal ratio of 40% or higher and lower than 70%),5 (Herbicidal ratio of 90% or more (almost completely withered)),–
